# Measurements published in US11371020B2, “Uses of epithelial-to-mesenchymal inhibitors in generating pacemaker cells” (Emory University, priority 2016, dated 2022).
# Entries after “also recorded” stand apart in the source; their conditions may differ.
# Columns and labels:
# [1] = system: TBX18-induced pacemaker cells (TBX18-iPCs); test: Electrode-to-electrode impedance measurement of migration of TBX18-iPCs; assay type: cell-based, rat; conditions: A83-01 0.5 microM; NRVM transduced with adenoviral human TBX18
# Procedure: TBX18-iPCs were created by transducing freshly isolated neonatal rat ventricular myocytes (NRVM) with an adenoviral vector expressing human TBX18. TBX18-iPC were cultured with an inhibitor of EMT, A83-01 (0.5 microM).
# (§1) Experiments were performed to test whether i) TBX18-induced pacemaker cells (TBX18-iPCs) migrate, and ii) inhibition of EMT in TBX18-iPCs may stop the migration, thereby enhancing its pacing function. (See FIGS. 1-8). TBX18-iPCs were created by transducing freshly-isolated neonatal rat ventricular myocytes (NRVM) with an adenoviral vector expressing human TBX18. TBX18-iPC were cultured with an inhibitor of EMT, A83-01. […] TBX18-iPCs beat in synchrony upon EMT inhibition, and their automaticity persists over long-term.
# [2] = system: TBX18-induced pacemaker cells (TBX18-iPCs); test: Beating, field potential and Ca2+ transient recording of TBX18-iPCs; assay type: cell-based, rat
# Procedure: as §1
# [3] = system: TBX18-iPCs; test: Cx43 localisation, gap junctional coupling and Hcn4 expression in TBX18-iPCs; assay type: cell-based, rat
# Procedure: as §1
# TBX18 mediates both automaticity and EMT in iPCs.
# [4] = biological target: T1, ALK-5 (Homo sapiens, UniProt P36897); conditions: cited from earlier work
# T1 sequence (P36897 34-503): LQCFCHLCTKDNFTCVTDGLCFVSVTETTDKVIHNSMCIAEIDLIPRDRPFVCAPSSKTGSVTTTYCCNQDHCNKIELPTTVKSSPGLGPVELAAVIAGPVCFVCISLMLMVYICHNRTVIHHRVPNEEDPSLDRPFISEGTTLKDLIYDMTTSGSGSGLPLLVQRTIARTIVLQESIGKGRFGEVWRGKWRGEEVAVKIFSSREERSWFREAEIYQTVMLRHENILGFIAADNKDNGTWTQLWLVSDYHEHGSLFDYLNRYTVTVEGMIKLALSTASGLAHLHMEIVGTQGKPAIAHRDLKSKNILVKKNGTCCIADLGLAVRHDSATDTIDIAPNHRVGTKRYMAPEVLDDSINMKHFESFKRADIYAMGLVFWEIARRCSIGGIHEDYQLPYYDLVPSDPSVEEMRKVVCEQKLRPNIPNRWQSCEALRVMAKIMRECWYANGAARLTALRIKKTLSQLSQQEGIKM
# [5] = system: EMT genes; test: EMT-related gene expression in TBX18-induced pacemaker cells; assay type: cell-based, rat; conditions: TBX18-iPCs cultured with A83-01
# Procedure: as §1
structure (smiles),measurement,setting,value
"Cc1cccc(-c2nn(C(=S)Nc3ccccc3)cc2-c2ccnc3ccccc23)n1 [A83-01, 3-(6-methyl-2-pyridinyl)-N-phenyl-4-(4-quinolinyl)-1H-pyrazole-1-carbothioamide]",migration of TBX18-iPCs,[1],remain stationary; also recorded: migratory behavior is deleted
same,persistence of automaticity of iPMs,[2]; in A83-01 versus without it,persists much longer
same,synchrony of pacing,[2]; in the presence of A83-01,synchronous and rhythmic pacing; also recorded: pace in unity
same,beating rate of TBX18-iPCs,[2]; upon EMT inhibition,beating rate increases
same,contraction and relaxation speed of TBX18-iPCs,[2]; upon EMT inhibition,contract and relax faster
same,gap junctional coupling of EMT-inhibited TBX18-iPCs,[3],long-term gap junctional coupling
same,Hcn4 expression in TBX18-iPCs,[3]; upon EMT inhibition,enhances Hcn4 expression
same,localisation of nuclear-bound Cx43 proteins in TBX18-iPCs,[3]; upon EMT inhibition,translocated to the sarcolemma
same,Smad signaling and epithelial-to-mesenchymal transition by transforming growth factor-beta,[4],inhibits
same,EMT gene expression in the iPCs,[5],down-regulates EMT genes
